Test results from DBAASP.
Converted amounts (≈) assume the structure as drawn. Values belong to the molecule of their own block, whether it stands above or below them.

Assays:
Test in all cases: ≥ marks a high value that may be exact or a test limit, other limits are often not marked, values filed in µg/mL are converted to µM
Escherichia coli HB101 = test system: Escherichia coli HB101
[1] = test system: Pseudomonas aeruginosa ATCC 27853
[2] = test system: Escherichia coli ATCC 25922
[3] = test system: Corynebacterium glutamicum ATCC 13032
[4] = test system: Staphylococcus aureus ATCC 9144
[5] = test system: Pseudomonas aeruginosa 910
[6] = test system: Pseudomonas aeruginosa PAO1
[7] = test system: Pseudomonas aeruginosa 253
[8] = test system: Pseudomonas aeruginosa 919
[9] = test system: Staphylococcus haemolyticus
Staphylococcus aureus = test system: Staphylococcus aureus
[10] = test system: Candida albicans ATCC 10231
Staphylococcus capitis 1 = test system: Staphylococcus capitis 1
[11] = test system: Staphylococcus aureus Cowan 1
[12] = test system: Yersinia pseudotuberculosis YPIII
Bacillus megaterium Bm11 = test system: Bacillus megaterium Bm11
[13] = test system: Staphylococcus aureus KCTC 1621
[14] = test system: Escherichia coli KCTC 1682
[15] = test system: Salmonella typhimurium KCTC 1926
[16] = test system: Pseudomonas aeruginosa KCTC 1637
[17] = test system: Bacillus subtilis KCTC 1918
[18] = test system: Trichosporon beigelii KCTC 7707
[19] = test system: Candida albicans TIMM 1768
[20] = test system: Candida albicans ATCC 37092
[21] = test system: Staphylococcus aureus ATCC 29213
[22] = test system: Klebsiella pneumoniae ATCC BAA-1705
Escherichia coli W3110 = test system: Escherichia coli W3110

Compound: CC[C@H](C)[C@H](NC(=O)[C@@H]1CCCN1C(=O)[C@H](CCCCN)NC(=O)[C@@H]1CCCN1C(=O)[C@H](CCCN=C(N)N)NC(=O)CNC(=O)[C@@H]1CCCN1C(=O)[C@H](Cc1ccccc1)NC(=O)[C@@H]1CCCN1C(=O)[C@H](CCCN=C(N)N)NC(=O)[C@@H]1CCCN1C(=O)[C@H](CCCN=C(N)N)NC(=O)CNC(=O)[C@@H]1CCCN1C(=O)[C@H](CO)NC(=O)[C@@H]1CCCN1C(=O)[C@H](Cc1c[nH]c2ccccc12)NC(=O)[C@H](CCCN=C(N)N)NC(=O)[C@@H](N)CO)C(=O)N[C@@H](Cc1ccccc1)C(=O)O [SRWPSPGRPRPFPGRPKPIF]
MIC (Escherichia coli HB101): ≥ 35.4 µM
MIC [1]: > 100 µM
MIC [2]: > 100 µM
MIC [3]: 17.7 µM (≈ 41.2 µg/mL)
MIC [4]: ≥ 100 µM

Compound: CC[C@H](C)[C@H](N)C(=O)N[C@@H](CC(C)C)C(=O)N[C@@H](CCCCN)C(=O)N[C@@H](Cc1c[nH]c2ccccc12)C(=O)N[C@@H](CCCCN)C(=O)N[C@@H](CCSC)C(=O)N[C@@H](Cc1ccccc1)C(=O)N[C@@H](CCCCN)C(=O)N[C@@H](Cc1c[nH]c2ccccc12)C(=O)N[C@@H](CCCCN)C(=O)N[C@@H](Cc1c[nH]c2ccccc12)C(=O)N[C@@H](Cc1ccccc1)C(=O)N[C@@H](CCCN=C(N)N)C(N)=O [ILKWKMFKWKWFR]
MIC [5]: 4 µM (≈ 7.59 µg/mL)
MIC [6]: 2 µM (≈ 3.79 µg/mL)
MIC [7]: 16 µM (≈ 30.3 µg/mL)
MIC [8]: 16 µM (≈ 30.3 µg/mL)

Compound: CC(C)C[C@H](NC(=O)[C@H](CCCN=C(N)N)NC(=O)[C@@H]1CCCN1C(=O)[C@@H]1CCCN1C(=O)[C@H](CCCN=C(N)N)NC(=O)[C@@H]1CCCN1)C(=O)N1CCC[C@H]1C(=O)N[C@@H](CCCN=C(N)N)C(=O)N1CCC[C@H]1C(=O)N[C@@H](CCCN=C(N)N)C(=O)N1CCC[C@H]1C(=O)N[C@@H](CCCN=C(N)N)C(=O)N1CCC[C@H]1C(=O)N[C@@H](CC(C)C)C(=O)N1CCC[C@H]1C(=O)N[C@@H](Cc1ccccc1)C(=O)N1CCC[C@H]1C(=O)N[C@@H](CCCN=C(N)N)C(=O)N1CCC[C@H]1C(=O)NCC(=O)O [PRPPRLPRPRPRPLPFPRPG]
MIC [20]: 17.6 µM (≈ 41.5 µg/mL)
MIC [2]: 18.1 µM (≈ 42.7 µg/mL)
MIC [21]: > 500 µM

Compound: CC[C@H](C)[C@H](N)C(=O)N[C@@H](Cc1c[nH]c2ccccc12)C(=O)N[C@@H](Cc1c[nH]c2ccccc12)C(=O)N[C@@H](C)C(=O)N[C@@H](CCCCN)C(=O)N[C@@H](Cc1c[nH]c2ccccc12)C(=O)NCC(=O)N[C@@H](CC(C)C)C(=O)N[C@@H](CCCCN)C(=O)N[C@@H](CC(C)C)C(=O)N[C@@H](CC(C)C)C(=O)N[C@@H](CCCN=C(N)N)C(=O)N[C@@H](Cc1ccc(O)cc1)C(=O)N[C@@H](CCCN=C(N)N)C(=O)N[C@@H](CCCN=C(N)N)C(=O)N[C@H](C(=O)N[C@@H](Cc1c[nH]c2ccccc12)C(=O)O)[C@@H](C)CC [IWWAKWGLKLLRYRRIW]
MIC [22]: ≥ 32 µM
MIC (Escherichia coli W3110): 4 µM (≈ 9.38 µg/mL)

Compound: CC[C@H](C)[C@H](N)C(=O)N[C@@H](Cc1c[nH]c2ccccc12)C(=O)N[C@@H](Cc1c[nH]c2ccccc12)C(=O)N[C@@H](C)C(=O)N[C@@H](CCCCN)C(=O)N[C@@H](CC(C)C)C(=O)NCC(=O)N[C@@H](CC(C)C)C(=O)N[C@@H](CCCCN)C(=O)N[C@@H](CC(C)C)C(=O)N[C@@H](CC(C)C)C(=O)N[C@@H](CCCN=C(N)N)C(=O)N[C@@H](Cc1ccc(O)cc1)C(=O)N[C@@H](CCCN=C(N)N)C(=O)N[C@@H](CCCN=C(N)N)C(=O)N[C@@H](Cc1c[nH]c2ccccc12)C(=O)N[C@@H](Cc1ccc(O)cc1)C(=O)O [IWWAKLGLKLLRYRRWY]
MIC [22]: 4 µM (≈ 9.29 µg/mL)
MIC (Escherichia coli W3110): 2 µM (≈ 4.64 µg/mL)

Further lines, with some results ahead:

MIC (Staphylococcus aureus): 300 µM (≈ 638 µg/mL)
Compound: CC(C)C[C@H](NC(=O)CNC(=O)CNC(=O)[C@H](C)NC(=O)[C@@H](NC(=O)[C@H](CC(N)=O)NC(=O)[C@H](CC(C)C)NC(=O)[C@H](CC(C)C)NC(=O)[C@H](CC(=O)O)NC(=O)[C@@H](NC(=O)[C@@H](NC(=O)[C@@H](NC(=O)CN)C(C)C)C(C)C)[C@@H](C)O)[C@@H](C)O)C(=O)N[C@@H](CC(C)C)C(=O)NCC(=O)N[C@@H](CC(N)=O)C(=O)N[C@@H](CC(C)C)C(=O)N[C@H](C(=O)NCC(=O)N[C@@H](CO)C(=O)N[C@@H](CC(C)C)C(=O)N[C@@H](CO)C(=O)NCC(N)=O)C(C)C [GVVTDLLNTAGGLLGNLVGSLSG]
MIC [9]: ≥ 400 µM

MIC [10]: 2.5 µM (≈ 3.53 µg/mL)
MIC (Staphylococcus capitis 1): 5 µM (≈ 7.05 µg/mL)
MIC [11]: 2.5 µM (≈ 3.53 µg/mL)
MIC [2]: > 40 µM
MIC [12]: 20 µM (≈ 28.2 µg/mL)
MIC (Bacillus megaterium Bm11): 2.5 µM (≈ 3.53 µg/mL)
Compound: CC[C@H](C)[C@H](NC(=O)CNC(=O)[C@H](CO)NC(=O)[C@H](CC(C)C)NC(=O)[C@@H](NC(=O)[C@H](CCCN=C(N)N)NC(=O)[C@H](C)NC(=O)[C@@H](NC(=O)[C@H](CC(C)C)NC(=O)[C@@H]1CCCN1C(=O)[C@H](CC(C)C)NC(=O)[C@@H](N)Cc1ccccc1)[C@@H](C)CC)C(C)C)C(=O)N[C@@H](CC(C)C)C(N)=O [FLPLIARVLSGIL]

MIC [13]: 6.25 µM (≈ 11 µg/mL)
MIC [14]: 6.25 µM (≈ 11 µg/mL)
MIC [15]: 1.56 µM (≈ 2.75 µg/mL)
MIC [16]: 3.12 µM (≈ 5.5 µg/mL)
MIC [17]: 3.12 µM (≈ 5.5 µg/mL)
MIC [18]: 1.56 µM (≈ 2.75 µg/mL)
MIC [19]: 12.5 µM (≈ 22 µg/mL)
Compound: CC(C)C[C@H](NC(=O)[C@H](CCCCN)NC(=O)[C@H](CCCCN)NC(=O)[C@H](CC(C)C)NC(=O)[C@H](CC(C)C)NC(=O)[C@H](CCCCN)NC(=O)[C@H](CCCCN)NC(=O)[C@H](CC(C)C)NC(=O)[C@H](CC(C)C)NC(=O)[C@@H]1CCCN1C(=O)[C@H](CCCCN)NC(=O)[C@H](CCCCN)NC(=O)[C@H](Cc1c[nH]c2ccccc12)NC(=O)[C@@H](N)CCCCN)C(N)=O [KWKKPLLKKLLKKL]

MIC [5]: 4 µM (≈ 5.19 µg/mL)
MIC [6]: 4 µM (≈ 5.19 µg/mL)
MIC [7]: 8 µM (≈ 10.4 µg/mL)
MIC [8]: 4 µM (≈ 5.19 µg/mL)
Compound: CC[C@H](C)[C@H](NC(=O)[C@@H](NC(=O)[C@H](CCCN=C(N)N)NC(=O)[C@H](Cc1c[nH]c2ccccc12)NC(=O)[C@H](CCCN=C(N)N)NC(=O)[C@@H](N)CCCN=C(N)N)C(C)C)C(=O)N[C@H](C(=O)N[C@@H](CCCCN)C(=O)N[C@@H](Cc1c[nH]c2ccccc12)C(N)=O)C(C)C [RRWRVIVKW]
